# Experiments:
# bamyardgrass = assay: Test B flood test barnyardgrass; type: in vivo, Echinochloa crus-galli
# Summary of the method: (§1)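 Flood test on plants grown to the 2-leaf stage; treated plants kept in greenhouse twelve to sixteen days, then visually rated against controls on a 0 (no effect) to 10 (complete control) scale.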
# rape = assay: Test B pre/postemergence rape; type: in vivo, Brassica napus
# Summary of the method: (§2)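 Herbicidal effect was estimated by eye on a ten-point control scale after plants spent twelve to sixteen days in a greenhouse following soil or foliar treatment. Foliar sprays targeted plants at one to four leaves; all doses were formulated in a non-phytotoxic solvent with surfactant.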
# pigweed = assay: Test B pre/postemergence pigweed; type: in vivo, Amaranthus retroflexus
# Summary of the method: as §2
# velvetleaf = assay: Test B pre/postemergence velvetleaf; type: in vivo, Abutilon theophrasti; details: for Plant response rating, Velvetleaf: Rate 250 g/ha
# Summary of the method: as §2
# bedstraw = assay: Test B pre/postemergence bedstraw; type: in vivo, Galium aparine
# Summary of the method: as §2
# purple nutsedge = assay: Test B pre/postemergence purple nutsedge; type: in vivo, Cyperus rotundus
# Summary of the method: as §2
# blackgrass = assay: Test B pre/postemergence blackgrass; type: in vivo, Alopecurus myosuroides
# Summary of the method: as §2
# soybean = assay: Test B pre/postemergence soybean; type: in vivo, Glycine max
# Summary of the method: as §2
# surinam grass = assay: Test B pre/postemergence surinam grass; type: in vivo, Brachiaria decumbens
# Summary of the method: as §2
# sugar beet = assay: Test B pre/postemergence sugar beet; type: in vivo, Beta vulgaris; details: for Plant response rating, Sugarbeets: Rate 250 g/ha
# Summary of the method: as §2
# rice = assay: Test B flood test rice; type: in vivo, Oryza sativa
# Summary of the method: as §1
# smallflower flatsedge = assay: Test B flood test smallflower flatsedge; type: in vivo, Cyperus difformis
# Summary of the method: as §1
# morningglory = assay: Test B pre/postemergence morningglory; type: in vivo, Ipomoea hederacea
# Summary of the method: as §2
# duck salad = assay: Test B flood test duck salad; type: in vivo, Heteranthera limosa
# Summary of the method: as §1
# corn = assay: Test B pre/postemergence corn; type: in vivo, Zea mays
# Summary of the method: as §2
# giant foxtail = assay: Test B pre/postemergence giant foxtail; type: in vivo, Setaria faberii
# Summary of the method: as §2
# [1] = Postemergence, Rate 62 g/ha, scale 0 to 10, 0 is no effect, 10 is complete control
# [2] = Rate 31 g/ha, Postemergence section (flood test species), scale 0 to 10
# [3] = flood test, listed under Postemergence, Rate 250 g/ha, scale 0 to 10, 0 no effect, 10 complete control
# [4] = Postemergence, Rate 125 g/ha, scale of 0 to 10 where 0 is no effect and 10 is complete control
# [5] = Postemergence, Rate 250 g/ha, scale 0 to 10, 0 no effect, 10 complete control
# [6] = Preemergence, Rate 31 g/ha, visual rating, scale 0 to 10 (0 no effect, 10 complete control)
# [7] = Preemergence, Rate 62 g/ha, scale 0 to 10 (0 no effect, 10 complete control)
# [8] = Preemergence, Rate 125 g/ha, scale 0 to 10 (0 no effect, 10 complete control)
# [9] = Preemergence, Rate 250 g/ha, scale of 0 to 10 where 0 is no effect and 10 is complete control
# [10] = Rate 31 g/ha, Postemergence, scale 0 to 10
# [11] = Rate 250 g/ha, Postemergence, scale 0 to 10, 0 is no effect, 10 is complete control
# [12] = Preemergence, Rate 125 g/ha, 0 is no effect, 10 is complete control
# [13] = Preemergence, scale of 0 to 10 where 0 is no effect and 10 is complete control
# [14] = Postemergence, scale 0 to 10, 0 is no effect, 10 is complete control
# [15] = Postemergence (flood test species), Rate 125 g/ha, scale of 0 to 10 where 0 is no effect and 10 is complete control
# [16] = Rate 250 g/ha, Postemergence (flood test), scale 0 to 10, 0 is no effect, 10 is complete control
smiles,measurement,setting,value
CC(C)N(C(=O)n1oc(=O)n(-c2cnn(C)c2)c1=O)c1ccc(F)cc1 [Compound 98],Barnyardgrass plant response rating,bamyardgrass; [1],5
same,Barnyardgrass plant response rating,bamyardgrass; [2],3
same,Barnyardgrass plant response rating,"bamyardgrass; Rate 125 g/ha, Postemergence section (flood test species), scale 0 to 10, 0 no effect, 10 complete control",9
same,Barnyardgrass plant response rating,bamyardgrass; [3],9
same,Rape plant response rating,rape; [1],0
same,Rape plant response rating,rape; [4],0
same,Rape plant response rating,rape; [5],0
same,Rape plant response rating,rape; [6],0
same,Rape plant response rating,rape; [7],0
same,"Plant response rating, Rape",rape; [8],0
same,"Plant response rating, Rape",rape; [9],0
same,Rape plant response rating,rape; [10],0
same,Redroot pigweed plant response rating,pigweed; [1],0
same,Redroot pigweed plant response rating,pigweed; [4],0
same,Redroot pigweed plant response rating,pigweed; [6],0
same,Redroot pigweed plant response rating,pigweed; [7],4
same,"Plant response rating, Redroot pigweed",pigweed; [8],4
same,"Plant response rating, Redroot pigweed",pigweed; [9],5
same,Redroot pigweed plant response rating,pigweed; [10],0
same,"Plant response rating, Redroot pigweed",pigweed; [11],0
same,Velvetleaf plant response rating,velvetleaf; [1],0
same,Velvetleaf plant response rating,velvetleaf; [4],0
same,Velvetleaf plant response rating,velvetleaf; [6],0
same,Velvetleaf plant response rating,velvetleaf; [7],0
same,Velvetleaf plant response rating (0 to 10 scale),velvetleaf; [12],0
same,"Plant response rating, Velvetleaf",velvetleaf; [13],2
same,"Plant response rating, Velvetleaf",velvetleaf; [14],0
same,Bedstraw plant response rating,bedstraw; [1],0
same,Bedstraw plant response rating,bedstraw; [6],0
same,Bedstraw plant response rating,bedstraw; [7],0
same,"Plant response rating, Bedstraw",bedstraw; [8],0
same,"Plant response rating, Bedstraw",bedstraw; [9],0
same,Bedstraw plant response rating,bedstraw; [10],0
same,Nutsedge plant response rating,purple nutsedge; [1],0
same,Nutsedge plant response rating,purple nutsedge; [4],0
same,Nutsedge plant response rating,purple nutsedge; [5],0
same,Nutsedge plant response rating,purple nutsedge; [6],0
same,Nutsedge plant response rating,purple nutsedge; [7],0
same,"Plant response rating, Nutsedge",purple nutsedge; [8],0
same,"Plant response rating, Nutsedge",purple nutsedge; [9],0
same,Nutsedge plant response rating,purple nutsedge; [10],0
same,Blackgrass plant response rating,blackgrass; [1],0
same,Blackgrass plant response rating,blackgrass; [4],0
same,Blackgrass plant response rating,blackgrass; [5],0
same,Blackgrass plant response rating,blackgrass; [6],0
same,Blackgrass plant response rating,blackgrass; [7],2
same,"Plant response rating, Blackgrass",blackgrass; [8],6
same,"Plant response rating, Blackgrass",blackgrass; [9],8
same,Blackgrass plant response rating,blackgrass; [10],0
same,Soybean plant response rating,soybean; [1],1
same,Soybean plant response rating,soybean; [4],1
same,Soybean plant response rating,soybean; [6],0
same,Soybean plant response rating,soybean; [7],0
same,"Plant response rating, Soybean",soybean; [8],0
same,"Plant response rating, Soybean",soybean; [9],0
same,"Plant response rating, Soybean",soybean; [11],1
same,B. signalgrass plant response rating,surinam grass; [1],0
same,B. signalgrass plant response rating,surinam grass; [5],0
same,B. signalgrass plant response rating,surinam grass; [6],0
same,B. signalgrass plant response rating,surinam grass; [7],0
same,"Plant response rating, B. signalgrass",surinam grass; [8],0
same,"Plant response rating, B. signalgrass",surinam grass; [9],0
same,B. signalgrass plant response rating,surinam grass; [10],0
same,B. signalgrass plant response rating,"surinam grass; Rate 125 g/ha, Postemergence, scale 0 to 10, 0 no effect, 10 complete control",0
same,Sugarbeets plant response rating,sugar beet; [1],0
same,Sugarbeets plant response rating,sugar beet; [4],0
same,Sugarbeets plant response rating,sugar beet; [6],0
same,Sugarbeets plant response rating,sugar beet; [7],0
same,Sugarbeets plant response rating (0 to 10 scale),sugar beet; [12],0
same,"Plant response rating, Sugarbeets",sugar beet; [13],3
same,"Plant response rating, Sugarbeets",sugar beet; [14],0
same,Rice plant response rating,rice; [15],4
same,Rice plant response rating,rice; [1],0
same,Rice plant response rating,rice; [2],0
same,"Plant response rating, Rice",rice; [16],6
same,S. Flatsedge plant response rating,smallflower flatsedge; [15],8
same,S. Flatsedge plant response rating,smallflower flatsedge; [1],0
same,"Plant response rating, S. Flatsedge",smallflower flatsedge; [16],8
same,Morningglory plant response rating,morningglory; [1],0
same,Morningglory plant response rating,morningglory; [4],0
same,Morningglory plant response rating,morningglory; [5],2
same,Morningglory plant response rating,morningglory; [6],0
same,Morningglory plant response rating,morningglory; [7],0
same,"Plant response rating, Morningglory",morningglory; [8],0
same,"Plant response rating, Morningglory",morningglory; [9],0
same,Morningglory plant response rating,morningglory; [10],0
same,Ducksalad plant response rating,duck salad; [15],2
same,Ducksalad plant response rating,duck salad; [1],0
same,Ducksalad plant response rating,duck salad; [2],0
same,Ducksalad plant response rating,duck salad; [3],3
same,Corn plant response rating,corn; [1],0
same,Corn plant response rating,corn; [4],0
same,Corn plant response rating,corn; [5],0
same,Corn plant response rating,corn; [6],0
same,Corn plant response rating,corn; [7],0
same,"Plant response rating, Corn",corn; [8],0
same,"Plant response rating, Corn",corn; [9],0
same,Corn plant response rating,corn; [10],0
same,Giant foxtail plant response rating,giant foxtail; [1],0
same,Giant foxtail plant response rating,giant foxtail; [4],0
same,Giant foxtail plant response rating,giant foxtail; [5],2
same,Giant foxtail plant response rating,giant foxtail; [6],4
same,Giant foxtail plant response rating,giant foxtail; [7],5
same,"Plant response rating, Giant foxtail",giant foxtail; [8],8
same,"Plant response rating, Giant foxtail",giant foxtail; [9],10
same,Giant foxtail plant response rating,giant foxtail; [10],0

# From patent US6737383B1, “Herbicidal oxadiazolidines” (priority 1999, dated 2004)
